Laboratory results as given in ChEMBL document CHEMBL3351443, “Development of 3-hydroxycinnamamide-based HDAC inhibitors with potent in vitro and in vivo anti-tumor activity” (Eur J Med Chem, 2015).
Blank lines part the entries; values can stand above or below the compound they belong to.

Columns and labels:
[1] = Antiproliferative activity against human U266 cells after 48 hrs by MTT assay; format: functional, cell-based; conditions: U-266, 48 h
Histone deacetylase = experiment: Inhibition of HDAC in human HeLa cell extract using Boc-Lys (acetyl)-AMC as substrate incubated for 10 mins prior to substrate addition measured after 30 mins by fluorescence assay; format: protein assay
[2] = Antiproliferative activity against human HCT116 cells after 48 hrs by MTT assay; format: functional, cell-based; conditions: HCT-116, 48 h
Histone deacetylase 3 = Histone deacetylase 3 (Homo sapiens, UniProt O15379); experiment: Inhibition of HDAC3 (unknown origin)
Histone deacetylase 3, sequence (O15379 whole entry): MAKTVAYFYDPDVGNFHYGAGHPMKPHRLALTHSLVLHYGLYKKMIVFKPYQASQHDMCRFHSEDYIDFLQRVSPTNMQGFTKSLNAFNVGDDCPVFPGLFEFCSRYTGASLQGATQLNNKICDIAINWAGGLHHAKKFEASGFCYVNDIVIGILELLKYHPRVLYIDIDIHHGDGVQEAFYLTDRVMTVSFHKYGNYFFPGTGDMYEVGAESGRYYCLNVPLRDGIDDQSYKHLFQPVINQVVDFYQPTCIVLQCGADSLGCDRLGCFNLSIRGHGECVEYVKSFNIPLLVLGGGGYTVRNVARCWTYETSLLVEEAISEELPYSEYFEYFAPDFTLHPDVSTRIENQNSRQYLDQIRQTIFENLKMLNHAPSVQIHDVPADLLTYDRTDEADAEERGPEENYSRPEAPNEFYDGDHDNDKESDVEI

Mus musculus [3] = experiment: Toxicity in athymic nude mouse xenografted with human U937 cells assessed as toxic sign in liver at 120 mg/kg/day, po after 16 days; format: organism-based, U-937; set-up: route oral; conditions: in vivo, 384 h
[4] = Antitumor activity against human U937 cells xenografted in athymic nude mouse assessed as tumor growth inhibition at 120 mg/kg/day, po after 16 days; format: functional; conditions: U-937, 384 h, read-out: TGI
MCF7 = experiment: Antiproliferative activity against human MCF7 cells after 48 hrs by MTT assay; format: functional, cell-based; conditions: MCF7, 48 h
[5] = Antiproliferative activity against human U937 cells after 48 hrs by MTT assay; format: functional, cell-based; conditions: U-937, 48 h
[6] = Antiproliferative activity against human PC3 cells after 48 hrs by MTT assay; format: functional, cell-based; conditions: PC-3, 48 h
MDA-MB-231 = experiment: Antiproliferative activity against human MDA-MB-231 cells after 48 hrs by MTT assay; format: functional, cell-based; conditions: MDA-MB-231, 48 h
Histone deacetylase 1 = Histone deacetylase 1 (Homo sapiens, UniProt Q13547); experiment: Inhibition of HDAC1 (unknown origin)
Histone deacetylase 1, sequence (Q13547 whole entry): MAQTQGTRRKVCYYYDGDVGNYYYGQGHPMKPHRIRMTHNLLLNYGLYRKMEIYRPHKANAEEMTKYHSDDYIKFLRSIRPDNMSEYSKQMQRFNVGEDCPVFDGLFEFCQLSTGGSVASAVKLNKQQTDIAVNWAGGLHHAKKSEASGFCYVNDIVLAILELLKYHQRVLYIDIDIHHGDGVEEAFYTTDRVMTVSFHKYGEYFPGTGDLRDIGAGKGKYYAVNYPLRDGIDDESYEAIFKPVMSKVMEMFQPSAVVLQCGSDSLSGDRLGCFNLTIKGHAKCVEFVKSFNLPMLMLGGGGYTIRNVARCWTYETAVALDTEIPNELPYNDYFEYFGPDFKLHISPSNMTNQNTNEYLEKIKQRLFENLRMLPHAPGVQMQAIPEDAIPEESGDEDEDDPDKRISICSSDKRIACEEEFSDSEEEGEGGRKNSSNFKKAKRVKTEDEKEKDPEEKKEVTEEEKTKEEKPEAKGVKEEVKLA

[7] = Antiproliferative activity against human HL60 cells after 48 hrs by MTT assay; format: functional, cell-based; conditions: HL-60, 48 h
U-937 [8] = experiment: Induction of apoptosis in human U937 cells assessed as apoptotic cells at 1.5 uM after 24 hrs by annexin-V/propidium iodide staining-based flow cytometry; format: functional
K562 = experiment: Antiproliferative activity against human K562 cells after 48 hrs by MTT assay; format: functional, cell-based; conditions: K562, 48 h
HEL = experiment: Antiproliferative activity against human HEL cells after 48 hrs by MTT assay; format: functional, cell-based
[9] = Antitumor activity against human U937 cells xenografted in athymic nude mouse at 120 mg/kg/day, po after 16 days relative to control; format: functional, U-937
Mus musculus [10] = experiment: Toxicity in athymic nude mouse xenografted with human U937 cells assessed as toxic sign in spleen at 120 mg/kg/day, po after 16 days; format: organism-based, U-937; set-up: route oral; conditions: in vivo, 384 h
U-937 [11] = experiment: Induction of apoptosis in human U937 cells assessed as late apoptotic cells at 1.5 uM after 24 hrs by annexin-V/propidium iodide staining-based flow cytometry (reference value: 2.77%); format: functional
A549 = experiment: Antiproliferative activity against human A549 cells after 48 hrs by MTT assay; format: functional, cell-based; conditions: A549, 48 h
[12] = target: T1, Protein deacetylase HDAC6 (Homo sapiens, UniProt Q9UBN7); experiment: Inhibition of HDAC6 (unknown origin)
T1 sequence (Q9UBN7 whole entry): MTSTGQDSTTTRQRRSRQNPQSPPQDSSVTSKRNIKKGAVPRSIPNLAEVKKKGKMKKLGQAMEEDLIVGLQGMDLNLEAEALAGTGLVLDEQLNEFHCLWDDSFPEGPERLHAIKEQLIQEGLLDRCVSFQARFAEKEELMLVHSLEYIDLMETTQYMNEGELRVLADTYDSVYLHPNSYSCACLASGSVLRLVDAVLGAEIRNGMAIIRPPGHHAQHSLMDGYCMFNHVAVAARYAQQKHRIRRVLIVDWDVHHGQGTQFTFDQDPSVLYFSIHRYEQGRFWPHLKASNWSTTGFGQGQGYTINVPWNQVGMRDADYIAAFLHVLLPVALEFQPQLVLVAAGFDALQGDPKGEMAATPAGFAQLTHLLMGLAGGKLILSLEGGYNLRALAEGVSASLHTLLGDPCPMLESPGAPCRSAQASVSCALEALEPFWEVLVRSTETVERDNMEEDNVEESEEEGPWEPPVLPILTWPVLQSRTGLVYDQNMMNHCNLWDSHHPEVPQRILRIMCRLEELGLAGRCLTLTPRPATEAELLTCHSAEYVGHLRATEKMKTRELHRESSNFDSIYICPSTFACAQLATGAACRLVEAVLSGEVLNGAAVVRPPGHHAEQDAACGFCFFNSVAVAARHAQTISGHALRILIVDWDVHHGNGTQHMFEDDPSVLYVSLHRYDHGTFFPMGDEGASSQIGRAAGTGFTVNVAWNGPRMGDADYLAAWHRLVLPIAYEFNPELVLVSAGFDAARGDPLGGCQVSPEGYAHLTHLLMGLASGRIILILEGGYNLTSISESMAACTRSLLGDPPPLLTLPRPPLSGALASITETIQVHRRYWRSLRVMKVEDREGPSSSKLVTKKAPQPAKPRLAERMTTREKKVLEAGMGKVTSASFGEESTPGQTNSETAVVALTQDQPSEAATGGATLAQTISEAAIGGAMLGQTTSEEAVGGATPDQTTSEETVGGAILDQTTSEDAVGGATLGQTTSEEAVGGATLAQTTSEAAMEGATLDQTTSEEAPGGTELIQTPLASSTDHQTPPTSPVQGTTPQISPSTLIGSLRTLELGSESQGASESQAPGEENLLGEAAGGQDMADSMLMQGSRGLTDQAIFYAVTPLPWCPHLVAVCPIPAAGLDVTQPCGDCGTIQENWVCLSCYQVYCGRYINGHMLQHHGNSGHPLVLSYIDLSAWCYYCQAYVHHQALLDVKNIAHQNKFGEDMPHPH

U-937 [13] = experiment: Induction of apoptosis in human U937 cells assessed as dead cells at 1.5 uM after 24 hrs by annexin-V/propidium iodide staining-based flow cytometry (reference value: 0.95%); format: functional
Histone deacetylase 2 = Histone deacetylase 2 (Homo sapiens, UniProt Q92769); experiment: Inhibition of HDAC2 (unknown origin)
Histone deacetylase 2, sequence (Q92769 whole entry): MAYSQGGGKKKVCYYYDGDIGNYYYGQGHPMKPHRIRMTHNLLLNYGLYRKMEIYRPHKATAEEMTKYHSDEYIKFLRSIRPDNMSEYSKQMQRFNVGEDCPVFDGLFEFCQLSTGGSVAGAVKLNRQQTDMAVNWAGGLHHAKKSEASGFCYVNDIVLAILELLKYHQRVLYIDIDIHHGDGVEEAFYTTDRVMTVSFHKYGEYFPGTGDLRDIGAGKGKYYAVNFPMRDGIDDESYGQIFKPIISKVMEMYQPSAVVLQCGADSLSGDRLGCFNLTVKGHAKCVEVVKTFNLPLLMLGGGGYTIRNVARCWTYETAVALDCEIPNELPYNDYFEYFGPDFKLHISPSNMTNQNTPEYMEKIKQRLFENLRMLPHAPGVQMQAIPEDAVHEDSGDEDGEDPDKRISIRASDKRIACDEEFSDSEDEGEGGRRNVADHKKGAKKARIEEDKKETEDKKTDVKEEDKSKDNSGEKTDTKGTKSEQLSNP

[14] = Antiproliferative activity against human KG1 cells after 48 hrs by MTT assay; format: functional, cell-based; conditions: KG-1, 48 h
U-937 [15] = experiment: Induction of apoptosis in human U937 cells assessed as early apoptotic cells at 1.5 uM after 24 hrs by annexin-V/propidium iodide staining-based flow cytometry (reference value: 3.81%); format: functional
Mus musculus [16] = experiment: Toxicity in athymic nude mouse xenografted with human U937 cells assessed as weight loss at 120 mg/kg/day, po after 16 days; format: organism-based, U-937; set-up: route oral; conditions: in vivo, 384 h
U-937 [17] = experiment: Induction of apoptosis in human U937 cells assessed as viable cells at 1.5 uM after 24 hrs by annexin-V/propidium iodide staining-based flow cytometry (reference value: 92.47%); format: functional
Histone deacetylase 11 = target: T2, Histone deacetylase 11 (Homo sapiens, UniProt Q96DB2); experiment: Inhibition of HDAC11 (unknown origin)
T2 sequence (Q96DB2 whole entry): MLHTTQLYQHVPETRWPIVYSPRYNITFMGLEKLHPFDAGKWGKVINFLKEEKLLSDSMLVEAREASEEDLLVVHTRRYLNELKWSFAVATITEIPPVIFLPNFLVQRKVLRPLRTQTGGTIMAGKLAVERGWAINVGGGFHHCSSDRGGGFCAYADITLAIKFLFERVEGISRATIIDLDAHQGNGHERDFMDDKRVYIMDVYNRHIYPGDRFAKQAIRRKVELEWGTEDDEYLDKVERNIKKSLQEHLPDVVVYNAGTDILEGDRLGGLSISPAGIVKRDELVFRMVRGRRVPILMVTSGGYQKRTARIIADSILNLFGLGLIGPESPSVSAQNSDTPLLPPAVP

Histone deacetylase 4 = Histone deacetylase 4 (Homo sapiens, UniProt P56524); experiment: Inhibition of HDAC4 (unknown origin)
Histone deacetylase 4, sequence (P56524 whole entry): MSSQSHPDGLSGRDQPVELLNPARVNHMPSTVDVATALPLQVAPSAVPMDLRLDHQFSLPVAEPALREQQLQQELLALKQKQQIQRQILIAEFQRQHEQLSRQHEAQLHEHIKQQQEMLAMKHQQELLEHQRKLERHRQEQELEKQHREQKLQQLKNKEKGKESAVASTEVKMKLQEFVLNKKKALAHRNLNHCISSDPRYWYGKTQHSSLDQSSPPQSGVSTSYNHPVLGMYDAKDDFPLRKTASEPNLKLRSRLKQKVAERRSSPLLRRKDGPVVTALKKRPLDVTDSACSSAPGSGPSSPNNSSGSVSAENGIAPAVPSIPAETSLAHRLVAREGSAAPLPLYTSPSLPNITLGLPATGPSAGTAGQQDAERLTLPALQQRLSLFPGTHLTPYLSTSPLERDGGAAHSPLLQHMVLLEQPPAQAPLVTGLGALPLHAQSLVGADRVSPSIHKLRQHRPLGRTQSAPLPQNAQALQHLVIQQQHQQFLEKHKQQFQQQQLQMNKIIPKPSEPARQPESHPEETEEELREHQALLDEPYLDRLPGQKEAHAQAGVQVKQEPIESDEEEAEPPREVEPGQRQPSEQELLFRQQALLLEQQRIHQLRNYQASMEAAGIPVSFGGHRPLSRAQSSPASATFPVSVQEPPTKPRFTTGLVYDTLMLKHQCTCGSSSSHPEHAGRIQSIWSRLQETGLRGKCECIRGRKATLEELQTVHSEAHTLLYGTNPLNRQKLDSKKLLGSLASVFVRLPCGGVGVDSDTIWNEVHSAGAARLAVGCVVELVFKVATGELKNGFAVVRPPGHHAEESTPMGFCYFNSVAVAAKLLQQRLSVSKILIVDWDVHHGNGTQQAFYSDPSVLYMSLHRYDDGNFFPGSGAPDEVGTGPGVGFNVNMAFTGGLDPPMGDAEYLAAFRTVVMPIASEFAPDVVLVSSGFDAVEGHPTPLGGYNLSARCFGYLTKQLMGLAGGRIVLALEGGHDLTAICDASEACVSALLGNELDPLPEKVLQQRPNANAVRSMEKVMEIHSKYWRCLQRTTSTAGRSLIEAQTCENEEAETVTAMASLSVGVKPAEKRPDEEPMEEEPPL

Histone deacetylase 8 = target: T3, Histone deacetylase 8 (Homo sapiens, UniProt Q9BY41); experiment: Inhibition of HDAC8 (unknown origin)
T3 sequence (Q9BY41 whole entry): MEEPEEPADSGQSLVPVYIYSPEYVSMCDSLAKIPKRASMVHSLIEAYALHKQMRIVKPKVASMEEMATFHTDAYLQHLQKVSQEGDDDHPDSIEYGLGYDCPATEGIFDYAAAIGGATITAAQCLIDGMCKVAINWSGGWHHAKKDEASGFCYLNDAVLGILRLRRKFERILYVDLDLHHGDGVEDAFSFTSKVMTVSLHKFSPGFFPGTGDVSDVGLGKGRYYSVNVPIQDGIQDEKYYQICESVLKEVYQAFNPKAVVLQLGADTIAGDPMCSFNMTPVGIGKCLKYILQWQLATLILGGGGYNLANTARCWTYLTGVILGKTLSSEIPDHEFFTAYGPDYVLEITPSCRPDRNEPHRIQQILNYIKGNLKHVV

IC50 (Histone deacetylase): 421.4 nM
SMILES: O=C(/C=C/c1cccc(OC[C@H](Cc2c[nH]c3ccccc23)NC(=O)c2ccccc2)c1)NO
IC50 [1]: 1230 nM

IC50 (Histone deacetylase): 81.9 nM
SMILES: O=C(/C=C/c1cccc(OC[C@H](Cc2c[nH]c3ccccc23)NC(=O)c2ccccc2Cl)c1)NO
IC50 [1]: 740 nM

IC50 (Histone deacetylase): 357.9 nM
SMILES: O=C(/C=C/c1cccc(OC[C@H](Cc2c[nH]c3ccccc23)NC(=O)c2cccc(Cl)c2)c1)NO
IC50 [1]: 3080 nM

IC50 (Histone deacetylase): 258.9 nM
SMILES: O=C(/C=C/c1cccc(OC[C@H](Cc2c[nH]c3ccccc23)NC(=O)c2ccc(Cl)cc2Cl)c1)NO
IC50 [1]: 2500 nM

IC50 (Histone deacetylase): 779 nM
SMILES: O=C(/C=C/c1cccc(OC[C@H](Cc2c[nH]c3ccccc23)NC(=O)c2cc(Cl)cc(Cl)c2)c1)NO
IC50 [1]: 3030 nM

IC50 (Histone deacetylase): 67.4 nM
SMILES: COc1cccc(C(=O)N[C@H](COc2cccc(/C=C/C(=O)NO)c2)Cc2c[nH]c3ccccc23)c1
IC50 [1]: 3090 nM

Continued, compound first:

SMILES: O=C(/C=C/c1cccc(OC[C@H](Cc2c[nH]c3ccccc23)NC(=O)c2ccc(Cl)cc2)c1)NO
IC50 [1]: 1740 nM

SMILES: CC(C)(C)OC(=O)N[C@H](COc1cccc(/C=C/C(=O)NO)c1)Cc1c[nH]c2ccccc12
IC50 [1]: 4180 nM
IC50 (Histone deacetylase): 917.4 nM

SMILES: CC(C)(C)OC(=O)NCC(=O)N[C@H](COc1cccc(/C=C/C(=O)NO)c1)Cc1c[nH]c2ccccc12
IC50 [1]: 8950 nM
IC50 (Histone deacetylase): 886.4 nM

SMILES: CC(NC(=O)OC(C)(C)C)C(=O)N[C@H](COc1cccc(/C=C/C(=O)NO)c1)Cc1c[nH]c2ccccc12 (stereo partly specified)
IC50 [1]: 6560 nM
IC50 (Histone deacetylase): 861.5 nM

SMILES: O=C(/C=C/c1cccc(OC[C@H](Cc2c[nH]c3ccccc23)NC(=O)Cc2ccccc2)c1)NO
IC50 [1]: 6570 nM
IC50 (Histone deacetylase): 447.7 nM

SMILES: O=C(/C=C/c1cccc(OC[C@H](Cc2c[nH]c3ccccc23)NC(=O)CCc2ccccc2)c1)NO
IC50 [1]: 6170 nM
IC50 (Histone deacetylase): 464.5 nM

SMILES: O=C(/C=C/c1cccc(OC[C@H](Cc2c[nH]c3ccccc23)NC(=O)CCCc2ccccc2)c1)NO
IC50 [1]: 3620 nM
IC50 (Histone deacetylase): 498.6 nM

SMILES: O=C(/C=C/c1cccc(OC[C@H](Cc2c[nH]c3ccccc23)NC(=O)c2ccc(Br)cc2)c1)NO
IC50 [1]: 1390 nM
IC50 (Histone deacetylase): 692.4 nM

SMILES: COc1ccc(C(=O)N[C@H](COc2cccc(/C=C/C(=O)NO)c2)Cc2c[nH]c3ccccc23)cc1
IC50 [2]: 2310 nM
IC50 (Histone deacetylase 3): 224 nM
Activity (Mus musculus [3]): Non-toxic
inhibition in vivo at 120 mg/kg/day [4]: 42.7%
IC50 (MCF7): 2490 nM
IC50 [5]: 360 nM
IC50 [6]: 3880 nM
IC50 (MDA-MB-231): 970 nM
IC50 (Histone deacetylase 1): 219 nM
IC50 [7]: 3700 nM
Activity (U-937 [8]): 35.53%
IC50 (K562): 3460 nM
IC50 (HEL): 380 nM
IC50 [1]: 410 nM
IC50 (Histone deacetylase): 191.2 nM
T/C [9]: 56.4%
Activity (Mus musculus [10]): Non-toxic
Activity (U-937 [11]): 23.99%
IC50 (A549): 4500 nM
IC50 [12]: 93.8 nM
Activity (U-937 [13]): 6.92%
IC50 (Histone deacetylase 2): 865 nM
IC50 [14]: 1080 nM
Activity (U-937 [15]): 11.54%
Activity (Mus musculus [16]): Non-toxic
viability at 1.5 µM (U-937 [17]; Homo sapiens, U-937, 24 h, read-out: Activity): 57.5%

SMILES: Cc1ccc(C(=O)N[C@H](COc2cccc(/C=C/C(=O)NO)c2)Cc2c[nH]c3ccccc23)cc1
IC50 [1]: 390 nM
IC50 (Histone deacetylase): 218.7 nM

SMILES: COc1ccccc1C(=O)N[C@H](COc1cccc(/C=C/C(=O)NO)c1)Cc1c[nH]c2ccccc12
IC50 (Histone deacetylase 3): 28.7 nM
IC50 (Histone deacetylase 1): 33.2 nM
IC50 (Histone deacetylase 11): 52.7 nM
IC50 [1]: 1430 nM
IC50 (Histone deacetylase): 38.5 nM
IC50 (Histone deacetylase 4): 440 nM
IC50 (Histone deacetylase 8): 87.4 nM
IC50 [12]: 23.9 nM
IC50 (Histone deacetylase 2): 64.8 nM

SMILES: O=C(CCCCCCC(=O)Nc1ccccc1)NO [VORINOSTAT]
IC50 [6]: 3570 nM
Activity (U-937 [8]): 21.22%
T/C [9]: 71.7%
Activity (U-937 [11]): 14.57%
Activity (U-937 [13]): 6.16%
Activity (U-937 [15]): 6.65%
Activity (U-937 [17]): 72.62%
